# Test results from PMC3029310 (Journal of Insect Science, 2010).
# Test system: T1, AChE
# T1 construct: gene ace1; native; newly emerged adult males for these rows
# Assay: Ellman assay (DTNB, […] nm), […] substrate concentrations […]
# Type: biochemical, Blattella germanica
# Conditions: newly emerged adult males; pH 7.5; 30 °C
structure (smiles),measurement,value
CC(=O)SCC[N+](C)(C)C [Acetylthiocholine iodide],Km,340 ± 49 µM
